Measured values reported in patent publication US20210391038A1, “SPECIFICALLY-SHAPED CRYSTAL OF COMPOUND AND METHOD FOR PRODUCING SAME” (TOWA PHARMACEUTICAL CO., LTD., priority 2018, published 2021).

Tests used:
Type in all cases: physicochemical
[1] = Measurement of critical degree of supersaturation of spherulite; conditions: entry 19; solvent 1 EtOH, solvent 2 H2O, solvent 2/solvent 1 ratio 1; crystallization 35 °C
Excerpt: “Supersaturated solution” in the present description means a solution in a state of containing a solute exceeding the solubility. As the degree of supersaturation, “degree of supersaturation” can be used. Regarding the degree of supersaturation, when the concentration (mass concentration (g/g)) of a compound dissolved in a supersaturated solution is defined as C and the solubility of the compound is defined as Cs, the degree of supersaturation S can be represented by the following formula: […]
“Critical degree of supersaturation” in the present description means the lowest degree of supersaturation required to obtain a specifically-shaped crystal. […] The value of a critical degree of supersaturation varies depending on the shape of a crystal. For example, all of values of a critical degree of supersaturation required to obtain a plate crystal, a critical degree of supersaturation required to obtain a needle crystal, and a critical degree of supersaturation required to obtain a spherulite are different. The critical degree of supersaturation required to obtain a spherulite is higher than the critical degree of supersaturation required to obtain a plate crystal or a needle crystal.
The actual measured value of the critical degree of supersaturation (S*) can be measured as follows:
(1) 100 particles are observed by SEM. (2) 5 to 10 particles whose shape is close to a desired specific shape are selected, and the shape is evaluated. In particular, when the desired specific shape is a sphere, the sphericity is evaluated. (3) Based on the evaluation index of the shape, whether the selected particles have the desired specific shape or not is determined. In particular, when the desired specific shape is a sphere, the case where the sphericity is 0.60 or more is determined as a spherulite. (4) The above-mentioned operation is performed for each sample having a different degree of supersaturation during crystallization, and the minimum value of a degree of supersaturation having the specifically-shaped particles is determined as the critical degree of supersaturation. The difference between the maximum value of a degree of supersaturation not having the specifically-shaped particles and the critical degree of supersaturation should be 20% or less.
The critical degree of supersaturation of a spherulite of ketotifen fumarate was determined as follows. To 2.0 g of ketotifen fumarate, 10 mL (5 v/w) of methanol was added, followed by reflux to completely dissolve. This solution was added dropwise to 50 mL of isopropanol at 20° C. to prepare a supersaturated solution of ketotifen fumarate. The degree of supersaturation of the supersaturated solution at the end of dropwise addition was 9.0. The supersaturated solution was crystallized. The crystal was collected by filtration, followed by drying under reduced pressure at 40° C., thus obtaining a crystal of ketotifen fumarate.
Similarly, when a substrate and a solvent different from those mentioned above are used, a plurality of samples having a different degree of supersaturation are prepared and crystallized, and then the critical degree of supersaturation of the spherulite was measured.

[2] = Particle density, true density and particle packing rate; conditions: for Particle packing rate: particle density / true density x 100; for Particle packing rate / Particle density: trihydrate
Protocol: “Particle density” in the present description is mass per unit volume when the volume of the substance itself as well as the volume of the open void and the closed void are included as the volume of polycrystalline particles. For example, when the polycrystalline particles are spherical particles, the particle density is calculated by the following formula using the mean mass of the polycrystalline particles and the mean volume of the polycrystalline particles:
Here, the mean mass of polycrystalline particles is calculated by measuring the number of polycrystalline particles contained in 1.0 mg or more, preferably 5.0 mg or more, and more preferably 10.0 mg or more of a sample by a scanner, etc. The mean volume of crystal particles is obtained by averaging the volume calculated by photographing 500 or more, preferably 1,000 or more, and more preferably 5,000 or more crystal particles by a light microscope, etc., using an equivalent circle diameter obtained from the projected area of polycrystalline particles, and assuming that the polycrystalline particles are true spheres. At this time, it is desirable that the distribution of the equivalent circle diameter is unimodal and the sharpness value is less than 1.5.
“Particle packing rate” of a polycrystal in the present description is a value calculated by the following formula:
Particle packing rate (%)=(particle density)/(true density of compound)×100 [Equation 8]
Here, “true density of compound” is a density of a substance itself not including a void. If no void exists at all inside or on the surface of a particle, the particle packing rate is 100%. The true density of a compound can be obtained by dry density measurement by the constant volume expansion method. Examples of the measuring device include a dry automatic densimeter AccuPyc II 1340-10CC manufactured by Shimadzu Corporation.
The particle size distribution was measured in a dry manner using a spray particle size distribution analyzer AEROTRAC LDSA-SPR3500A manufactured by Microtrac Inc. The particle size distribution in Examples 2 and 7 was measured in a dry manner using a laser diffraction particle size distribution measurement MASTERSIZER 3000 manufactured by Malvern Panalytical Ltd. SEM images were measured using a scanning electron microscope JSM-IT100 manufactured by JEOL Ltd. Light microscope images were measured using an upright microscope BX53M manufactured by Olympus Corporation and a microscope digital camera DP74 manufactured by Olympus Corporation. Images for measuring the number of particles were obtained by a scanner GT-X830 manufactured by SEIKO EPSON CORPORATION. The powder X-ray diffraction (XRD) was measured using a desktop X-ray diffraction device MiniFlex300 manufactured by Rigaku Corporation. The specific surface area was measured by the BET fluid process (gas used: pure nitrogen) using a fully automatic specific surface area measuring device Macsorb HM-1208 manufactured by Mountech Co., Ltd. The moisture content was measured using a trace moisture measuring device AQ-2200 manufactured by […] SANGYO Co., Ltd. The dissolution profile was measured using μDISS Profiler manufactured by Pion Inc. Centrifugal classification was performed using a high-efficiency precision forced air classifier Lab Calssiel N-01 manufactured by SEISHIN […] Co., Ltd. Image analysis was performed using image processing software ImageJ developed by the National Institute of Health (NIH). The particle strength was measured using a particle hardness measuring device NEW GRANO manufactured by OKADA SEIKO CO., LTD. The true density was measured using a dry automatic densimeter AccuPyc II 1340-10CC manufactured by Shimadzu Corporation. The purity of a compound was measured by a high performance liquid chromatograph (LC-20A) manufactured by Shimadzu Corporation. […]

[3] = Sphericity from SEM images (ImageJ); design: key: 1 = true sphere; closer to 1 = more spherical; mean of ≥5 particles; conditions: SEM image analysis, mean of particles
Excerpt: In the present description, “spherulite” means a crystal aggregate (polycrystal) which has a radial or concentric thin layered structure and has a spherical outer shape. Whether the crystal obtained by the method of the present invention is a spherulite or not can be determined, for example, by observing the outer shape of the crystal using SEM. For example, it can be discriminated by cutting the crystal aggregate and observing the internal structure thereof using SEM. The sphericity of the spherulite obtained by the method of the present invention is usually 0.60 or more, preferably 0.70 or more, more preferably 0.80 or more, particularly preferably 0.90 or more, and most preferably 0.95 or more. The sphericity can be calculated by the following method.
When an image of particles taken by SEM is analyzed using image processing software ImageJ, a coordinate group representing the position of pixels forming the outline of a particle is obtained. The length of the coordinate group is defined as N, and one pixel coordinate of each outline is defined as p[i] (1≤i≤N). The angle between a straight line l(k) connecting two points p[k] and p[k+N/D] and a straight line m(k) connecting two points p[k+N/D] and p[k+2N/D] is defined as θ(k) (−180°<θ<180°) (1≤k≤N, 1≤D≤N). D corresponds to the number of partitions of the outline. When N/D is not a natural number, the value is defined as the quotient obtained by dividing N by D. By calculating this angle with k=1 to N, N pieces of θ value can be obtained.
When the particle is a true sphere, θ(k) is 360/D, and the closer the particle is to a true sphere, the closer θ(k) is to this value. The error between θ(k) and the true value 360/D is evaluated by the root-mean-square error (RMSE) of the following formula:
Using the RMSE value of when D is 10 (θ(k)=36°), the sphericity is defined by the following formula: […]
The sphericity is 1 in a true sphere, and the closer the particle is to a true sphere, the closer the sphericity is to 1. Meanwhile, the sphericity of an ellipse whose long axis is infinitely long is zero. The sphericity is measured for five or more particles to calculate the mean. This mean is defined as the sphericity of each sample (see FIGS. 42 and 43).

[4] = Particle size distribution (d50, sharpness index); design: key to sharpness index of the crystal thus obtained / sharpness index of the fine powders: calculated by formula from d10, d50, d90; 1.0 = most uniform particle size; conditions: for sharpness index of the crystal thus obtained: calculated from d10, d50, d90; for d50 of the crystal thus obtained: dry particle size distribution, volume based
Excerpt: d10 in the present description is a value obtained from a particle size distribution analyzer, and represents a particle size of a particle corresponding to 10% of accumulation from the smaller particle side in the particle size distribution based on the volume.
d50 in the present description is a value obtained from a particle size distribution analyzer, and represents a particle size of a particle corresponding to 50% of accumulation from the smaller particle side in the particle size distribution based on the volume.
“Sharpness index” in the present description is an index representing the uniformity of a particle size of a particle in a powder, and a sharpness index of 1.0 represents a powder having the most uniform particle size. The closer the sharpness index is to 1.0, the more the particle size of the powder is uniform. Specifically, the sharpness index represents a value calculated using the following formula from the values of d10, d50, and d90 measured by a particle size distribution analyzer:
Images for measuring the number of particles were obtained by a scanner GT-X830 manufactured by SEIKO EPSON CORPORATION. The powder X-ray diffraction (XRD) was measured using a desktop X-ray diffraction device MiniFlex300 manufactured by Rigaku Corporation. […] The particle strength was measured using a particle hardness measuring device NEW GRANO manufactured by OKADA SEIKO CO., LTD. […] The purity of a compound was measured by a high performance liquid chromatograph (LC-20A) manufactured by Shimadzu Corporation.

With `COc1ccc2[n-]c([S@@+]([O-])Cc3ncc(C)c(OC)c3C)nc2c1.COc1ccc2[n-]c([S@@+]([O-])Cc3ncc(C)c(OC)c3C)nc2c1.O.O.O.[Mg+2]` [Esomeprazole magnesium trihydrate] the “Critical degree of supersaturation S Experimental value” [1] was 1.6 and the true density [2] was 1.37 g/mL.

With `N[C@@H](CCC(=O)N[C@@H](CS)C(=O)NCC(=O)O)C(=O)O` [Example 23, glutathione] the “sphericity of the spherulite” value [3] was 0.85±0.07, the “sharpness index of the crystal thus obtained” value (from here on “sharpness index”) [4] was 2.27 and the “d50 of the crystal thus obtained” value [4] was 48.4 μm.

For `CCCCCCOC(=O)N=C(N)c1ccc(NCc2nc3cc(C(=O)N(CCC(=O)OCC)c4ccccn4)ccc3n2C)cc1` [Example 24, dabigatran etexilate methanesulfonate], the “sphericity of the spherulite” value [3] was 0.95±0.03, the “sharpness index” value [4] was 2.61 and the “d50 of the crystal thus obtained” value [4] was 61.3 μm.

In the case of `Cc1cccc(C)c1NC(=O)CC12CCCN1CCC2.Cl` [Example 25, pilsicainide hydrochloride anhydride], the “sphericity of the spherulite” value [3] is reported as 0.69±0.18, the “sharpness index” value [4] is reported as 2.29 and the “d50 of the crystal thus obtained” value [4] is reported as 116 μm.

For `Cn1c(=O)c2[nH]cnc2n(C)c1=O.O.O.O.O.[Mg]` [Example 26, theophylline magnesium salt tetrahydrate], the “sphericity of the spherulite” value [3] was 0.95±0.02, the “sharpness index” value [4] was 3.06 and the “d50 of the crystal thus obtained” value [4] was 43.0 μm.

For `Nc1nc(CC(=O)Nc2ccc(CCNC[C@H](O)c3ccccc3)cc2)cs1` [Example 27, mirabegron], the “sphericity of the spherulite” value [3] was 0.98±0.01, the “sharpness index” value [4] was 1.66 and the “d50 of the crystal thus obtained” value [4] was 148 μm.

For `O=C(O)CCCN1CCC(O[C@@H](c2ccc(Cl)cc2)c2ccccn2)CC1.O=S(=O)(O)c1ccccc1` [Example 30, bepotastine besilate], the “sphericity of the spherulite” value [3] was 0.98±0.01, the “sharpness index” value [4] was 2.15 and the “d50 of the crystal thus obtained” value [4] was 105 μm.

For `COc1ccc2[n-]c([S@@+]([O-])Cc3ncc(C)c(OC)c3C)nc2c1.COc1ccc2[n-]c([S@@+]([O-])Cc3ncc(C)c(OC)c3C)nc2c1.O.O.O.[Mg+2]` [Sample 1, esomeprazole magnesium trihydrate], the Particle packing rate [2] was 54% and the Particle density [2] was 0.74 g/mL.

`COc1ccc2[n-]c([S@@+]([O-])Cc3ncc(C)c(OC)c3C)nc2c1.COc1ccc2[n-]c([S@@+]([O-])Cc3ncc(C)c(OC)c3C)nc2c1.O.O.O.[Mg+2]` [Sample 2, esomeprazole magnesium trihydrate] showed a Particle packing rate [2] of 64% and a Particle density [2] of 0.87 g/mL.

Work on `COc1ccc2[n-]c([S@@+]([O-])Cc3ncc(C)c(OC)c3C)nc2c1.COc1ccc2[n-]c([S@@+]([O-])Cc3ncc(C)c(OC)c3C)nc2c1.O.O.O.[Mg+2]` [Sample 3, esomeprazole magnesium trihydrate] yielded a Particle packing rate [2] of 88% and a Particle density [2] of 1.21 g/mL.
